Consider five molecules from patent US10731187B2, “Recombinant strain producing O-aminobenzoate and fermentative production of aniline from renewable resources via 2-aminobenzoic acid” (Covestro Deutschland AG, priority 2014, dated 2020).

For data set [1] the following is noted: cited from earlier work.
The target in data set [2] is T1, E. coli TrpEG (anthranilate synthase) variant TrpEGS40R, mutation S40R (SEQ ID NO: 52; SEQ ID No. 50-51) (Escherichia coli, UniProt P00895).
T1 construct: S40R lies in TrpE
Put plainly: Anthranilate synthase activity in cell lysate of C. glutamicum ΔtrpD/pEKEx2-trpEG^S40R (KM and vmax). Particulars: raw extract (cell lysate), 25 °C, 20 mM L-glutamine, 10 mM MgCl2. The data set is classed as biochemical. An excerpt:
In more specific embodiments of the recombinant microbial host cell of invention, the Corynebacterium glutamicum microbial host cell, preferably Corynebacterium glutamicum ATCC 13032, can further overexpress one or more of the genes selected from the group consisting of galP (SEQ ID NO: 30), iolT2 (SEQ ID NO: 31), ppgk (SEQ ID NO: 32), pps (SEQ ID NO: 33-35), ppk (SEQ ID NO: 36), zwfl (SEQ ID NO: 37), opcA (SEQ ID NO: 38-39), tktCg (SEQ ID NO: 40), tktEc (SEQ ID NO: 41), talCg (SEQ ID NO: 42), tame (SEQ ID NO: 43), a gene encoding TrpEGS38F (trpEG^S38F, SEQ ID NO: 50), a gene encoding TrpEGS38R (trpEG^S38R, SEQ ID NO: 51), a gene encoding TrpEGS40R (trpEG^S40R, SEQ ID NO: 52), a gene encoding TrpEGS40F (trpEG^S40F, SEQ ID NO: 53), the gene encoding AroGD146N (aroG^D146N, SEQ ID NO: 55), aroL of Escherichia coli LJ110 (SEQ ID NO: 93), aroK (SEQ ID NO: 94), glnA (SEQ ID NO: 95), and qsuA (SEQ ID NO: 96). […]

Data set [3] concerns Corynebacterium glutamicum. Put plainly: Growth (OD600) in shake flask cultures supplemented with toxic substances. The data set is classed as cell-based, Corynebacterium glutamicum DSM 20300 (=ATCC 13032). The following applies: 3 g/L, pH 7 (MOPS), 25 h. An excerpt: (§1) Several strains commonly used industrial biotechnology were investigated regarding their natural tolerance towards oAB and to organic solvents in question for later product extraction (e.g. 1-dodecanol or octanol). Furthermore, the influence of the used pH value was investigated. It was known from previous experiments that at least for E. coli the toxicity of aromatic compounds depends strongly on the pH value, probably because protonated acids can much more efficiently penetrate the cell membrane and accordingly their toxicity rises severely. The extraction of oAB in an organic phase is supposed to work best at low pH values, close to the isoelectric point of oAB. The most relevant host strains considered were: Escherichia coli K12, Corynebacterium glutamicum DSM 20300 (=ATCC 13032), Pseudomonas putida KT2440, Bacillus subtilis subsp. 168, Saccharomyces cerevisiae DSM 70449, and Pichia pastoris X33 (DSM 70382).
(§2) To investigate the chosen strains towards the mentioned characteristics shake flasks and small scale fermentation experiments were performed and the organisms were supplemented with the toxic substances (aminobenzoates, solvents) at differed concentrations, different pH values, and the behaviour of the strains was studied. […]

A further data set concerns P. putida. Put plainly: Shake flask growth (OD600) with supplementation of toxic substances. The class given is cell-based, Pseudomonas putida KT2440. Particulars: after octanol addition, pH 7, shake flask.
Source text: as §1, §2

A further data set has as its system all organisms. Put plainly: Toxicity of the extraction solvent octanol, shake flask growth. The class given is cell-based. Particulars: 0.1 g/L and 3 g/L octanol.
Source text: as §1, §2

Another data set has as its system E. coli. Nature of the data set: Shake flask growth (OD600) with supplementation of toxic substances. The class given is cell-based, Escherichia coli K12. Particulars: 3 g/L pAB, pH 7, shake flask.
Source text: as §1, §2

Turning to `CCCCCCCCCCCCO` [1-dodecanol], the miscibility in water in data set [1] (1-dodecanol) is 0.004 g/L.
Turning to `C=C(O[C@@H]1C=C(C(=O)O)C=C[C@H]1O)C(=O)O` [chorismate], the Vmax in data set [2] is 317.9 mU/mg.
For `Nc1ccccc1C(=O)O` [oAB, o-aminobenzoate], the growth inhibition entry in data set [3] was “growth was not inhibited”.
Take `CCCCCCCCO` [octanol]: the “growth (OD600)” value in the data set with P. putida was “minor growth activity”; in the data set on all organisms, “unable to grow”. Further, the solubility in water entry in data set [1] (octanol) is on record as “about 0.1 g/L”.
As for `Nc1ccc(C(=O)O)cc1` [pAB, 4-aminobenzoate, reference compound], the “growth (OD600)” value in the data set with E. coli was “not inhibited”.
